Experimental data as given in US10925965B2, “Protein formulations with increased stability” (Arecor Limited, priority 2010, dated 2021).
Where two headings read alike, the source gives them in different places.

Tests used:
[1] = cited from earlier work
uricase = target: T1, uricase (Cyberlindnera jadinii, UniProt P78609); assay: Stability of uricase at 60° C. (enzyme activity recovery, optical assay) with preservative and additives; format: biochemical; conditions: pH 8.0
T1 construct: purchased Sigma U0880
T1 sequence (P78609 1-303): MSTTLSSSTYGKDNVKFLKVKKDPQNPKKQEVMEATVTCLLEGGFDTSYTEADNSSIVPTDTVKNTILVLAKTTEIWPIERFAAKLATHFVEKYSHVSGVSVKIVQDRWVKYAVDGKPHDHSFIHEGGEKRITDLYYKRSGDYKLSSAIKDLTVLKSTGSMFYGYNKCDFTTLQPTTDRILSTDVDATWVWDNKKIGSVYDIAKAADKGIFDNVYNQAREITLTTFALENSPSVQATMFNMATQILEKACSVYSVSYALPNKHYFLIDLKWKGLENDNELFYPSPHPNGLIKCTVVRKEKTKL
Description: Uricase was obtained from Sigma (U0880). The enzyme was formulated at 100 μg/ml. Measurements of enzyme activity were performed on a 96-well plate using an optical assay: 10 μl of the formulation was mixed with […] (borate buffer 25 mM, pH 8.5) and 50 μL substrate (sodium urate 2 mM). The mixture was equilibrated at room temperature for about 5 min. After 5 min, the following reagents were added in this particular order to each sample (the first reagent must be added at exactly 5 min, the timing of the other reagents addition is less crucial): 50 μl of citrate/phosphate buffer (0.5 M. pH 4.0); 15 μL of TMB (3 mg/mL, dissolved in DMSO) then 15 μL of lactoperoxidase (1 mg/mL, dissolved in water). The resulting solution was mixed thoroughly and absorbance was read at 630 nm using a plate reader. Optical density was calibrated using a range of concentrations of a reference enzyme solution. All measurements were carried out in triplicates and average value was recorded. Stability of enzyme was found in the preliminary experiments to be optimal at pH around 8.0, with minimal effect of ionic strength on the stability. The preservation of the enzyme activity was studied in a background formulation containing 10 mM histidine and 300 mM 1,2-propanediol, adjusted to pH 8. […] The effect of the stabilizing excipients was studied by comparing the stability of uricase in the solution containing the preservative only with that in the solution containing both the preservative and the stabilizing component. The concentration of the additives tested was selected based on their solubility in aqueous solutions.

[2] = target: human growth hormone (hGH) (Homo sapiens, UniProt P01241); assay: Formation of high molecular weight species (HMWS) in aqueous hGH solutions at 40° C., size-exclusion HPLC; format: physicochemical; conditions: 10 mM benzoate anion, background solutions 1 and 2, 40° C.
Description: Formation of high molecular weight species (HMWS) was followed in aqueous solutions of hGH (15 mg/mL) using the following size-exclusion HPLC method: The mobile phase was prepared by mixing 97 parts (v/v) of 63 mM sodium phosphate (pH 7.0) with 3 parts (v/v) of propan-2-ol. The mobile phase was filtered prior to its use. The liquid chromatograph (Agilent 1100 series) was equipped with a 214 nm detector, guard column and a 7.8×300 mm BioSep SEC-S2000 column. The flow rate was maintained at 0.6 ml/min. 15 μl of aqueous samples of hGH were injected. The percentage of HMS was expressed as the ratio of the total area of all peaks with shorter elution time than the monomeric form of hGH versus the total peak area, ignoring peaks corresponding the excipients. The hGH solutions were incubated at 40° C. and assessed for the presence of HMWS at specific timepoints. In addition, the samples were assessed by eye for signs of visible precipitation.

[3] = test system: horseradish peroxidase (HRP); assay: Stability of horseradish peroxidase (HRP) at 60° C. (enzyme activity recovery, optical assay) with preservative and additives; format: biochemical
Description: HRP was obtained from Sigma (P8250), The enzyme was formulated at 0.5 mg/ml. Measurements of enzyme activity were performed on a 96-well plate using an optical assay: 20 μl of the formulation was mixed with 180 μl enzyme diluent solution (1.82 mM ABTS, 28 mM hydrogen peroxide in 0.1M sodium phosphate buffer pH 7.0). The resulting solution was mixed thoroughly and absorbance was read at 630 nm using a plate reader after 5 min. Optical density was calibrated using a range of concentrations of a reference enzyme solution. All measurements were carried out in triplicates and average value was recorded. Stability of enzyme was found in the preliminary experiments to be optimal at pH around 7.0 and relatively independent of ionic strength. The preservation of the enzyme activity was studied in background formulations containing 10 mM TRIS and 1,2-propanediol (300 mM) at pH 7.0. With the exception of control solutions, the solutions contained m-cresol (30 mM). The effect of the stabilizing excipients was studied by comparing the stability of HRP in the solution containing the preservative only with that in the solution containing both the preservative and the stabilizing component. The concentration of the additives tested was selected based on their solubility in aqueous solutions.

Chain of human growth hormone (hGH) (P01241 27-217): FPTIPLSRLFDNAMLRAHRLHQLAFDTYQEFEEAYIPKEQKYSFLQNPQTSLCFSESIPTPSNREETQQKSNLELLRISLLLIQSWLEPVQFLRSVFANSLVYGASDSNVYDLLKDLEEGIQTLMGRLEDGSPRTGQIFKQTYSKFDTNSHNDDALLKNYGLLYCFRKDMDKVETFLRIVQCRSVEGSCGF

Question: Which “pKa value(s) of carboxylate group(s)” value ([1]; first or only value given) does the source give for O=C(O)c1ccc2ccccc2c1 [2-naphthoic acid] here?
Answer: 4.17

Question: Which “pKa value(s) of carboxylate group(s)” value ([1]; first or only value given) does the source give for O=C(O)c1cc(O)c(O)c(O)c1 [3,4,5-trihydroxybenzoic acid] here?
Answer: 4.41

Question: For COc1cc(C(=O)O)ccc1O [4-hydroxy-3-methoxybenzoic acid], which “pKa value(s) of carboxylate group(s)” value ([1]; first or only value given) is on record?
Answer: 4.5

Question: Which “Effect on stability of uricase at 60° C.” value (uricase) does the source give for OCc1ccccc1 [Benzyl alcohol] here?
Answer: impairment of stability

Question: For O=C(O)C1CCCCC1 [Cyclohexane carboxylic acid, reference compound], which “Effect on stability of uricase at 60° C.” value (uricase) is on record?
Answer: increase in the destabilising effect

Question: With Oc1ccccc1 [Phenol] as the molecule, how does the “Effect on stability of uricase at 60° C.” value (uricase) read?
Answer: impairment of stability

Question: With O=C([O-])c1ccccc1.[K+] [benzoate anion, potassium benzoate] as the molecule, how does the “Effect on rate of HMWS formation” value [2] read?
Answer: lower rate of HMWS formation

Question: Which “pKa value(s) of carboxylate group(s)” value ([1]; first or only value given) does the source give for O=C(O)/C=C\c1ccccc1 [cis-cinnamic acid] here?
Answer: 3.89

Question: With O=C(O)Cc1c[nH]c2ccccc12 [indole-3-acetic acid] as the molecule, how does the “pKa value(s) of carboxylate group(s)” value ([1]; first or only value given) read?
Answer: 4.75

Question: For Cc1cccc(O)c1 [m-Cresol], which “Effect on stability of HRP at 60° C.” value ([3]; 60° C., pH 7.0) is on record?
Answer: slight impairment of stability

Question: With O=C(O)c1ccccc1C(=O)O [phthalic acid] as the molecule, how does the “pKa value(s) of carboxylate group(s)” value ([1]; second value printed (second carboxylate group)) read?
Answer: 5.28

Question: Which “pH of optimal stability of enzyme” value ([3]; preliminary experiments) does the source give for “HRP: HRP obtained from Sigma (P8250), formulated at 0.5 mg/ml” here?
Answer: around 7.0
